Results taken from patent US20220323406A1, “METHODS AND COMPOSITIONS FOR DIFFERENTIATING STEM CELLS” (Massachusetts Institute of Technology, priority 2019, published 2022).
Counter-ions that a name gives are not always drawn.

Experiments:
ENR+CD organoids = assay: Primary screen: ATP (CellTiter-Glo 3D, CTG) cell number/viability, 2.5-D 384-well ENR+CD organoids; conditions: primary screen; for Dose.FC.CTG: FC relative to plate median; for Z.CTG: standard z score;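 on all read-outs here: compounds given at plating and again on day 3 over a 6-day differentiation from ENR+CV stem-cell-enriched precursors, ATP measured on day 6, plate median as control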
[1] = test system: ENR+CD organoids (ISC to Paneth cell differentiation); assay: Primary screen: CCh-stimulated lysozyme secretion LYZ.S, 2.5-D 384-well ENR+CD organoid differentiation; type: cell-based, mouse; conditions: primary screen; for Dose.FC.LYZ.S: FC relative to plate median
From the text: (§1) High-throughput screening.

[2] = test system: ENR+CD organoids (ISC to Paneth cell differentiation); assay: Primary screen: basal (non-stimulated) lysozyme secretion LYZ.NS, 2.5-D 384-well ENR+CD organoid differentiation; type: cell-based, mouse; conditions: primary screen; for Dose.FC.LYZ.NS: FC relative to plate median; for Z.LYZ.NS: standard z score
From the text: as §1

Compound	Dose.FC.CTG (ENR+CD organoids; dose 0.08 uM) [log2 fold change]	Dose.FC.CTG (ENR+CD organoids; dose 0.40 uM) [log2 fold change]	Dose.FC.CTG (ENR+CD organoids; dose 2.00 uM) [log2 fold change]	Dose.FC.CTG (ENR+CD organoids; dose 10.00 uM) [log2 fold change]	Dose.FC.LYZ.S ([1]; dose 0.08 uM) [log2 fold change]	Dose.FC.LYZ.S ([1]; dose 0.40 uM) [log2 fold change]	Dose.FC.LYZ.S ([1]; dose 2.00 uM) [log2 fold change]	Dose.FC.LYZ.S ([1]; dose 10.00 uM) [log2 fold change]	Dose.FC.LYZ.NS ([2]; dose 0.08 uM) [log2 fold change]	Z.LYZ.NS ([2]; dose 0.08 uM)	Dose.FC.LYZ.NS ([2]; dose 0.40 uM) [log2 fold change]	Z.LYZ.NS ([2]; dose 0.40 uM)	Dose.FC.LYZ.NS ([2]; dose 2.00 uM) [log2 fold change]	Z.LYZ.NS ([2]; dose 2.00 uM)	Dose.FC.LYZ.NS ([2]; dose 10.00 uM) [log2 fold change]	Z.LYZ.NS ([2]; dose 10.00 uM)	also measured
C#CCN[C@@H]1CCc2ccccc21 [Rasagiline Mesylate]	0.154	0.103	0.041	0.104	0.140	0.077	0.014	0.026	0.072	0.631	0.013	0.117	0.048	0.417	−0.034	−0.294	–
Cl.O=C(O)Cc1cccc(OCCCN(Cc2cccc(C(F)(F)F)c2Cl)CC(c2ccccc2)c2ccccc2)c1 [GW3965 HCl]	–	–	–	–	–	–	–	–	–	–	–	–	–	–	–	–	Dose.FC.CTG (log2 fold change) (ENR+CD organoids; dose 0.08 uM): 0.138; Z.CTG (standard z score) (ENR+CD organoids; dose 0.08 uM): 0.330; Dose.FC.CTG (log2 fold change) (ENR+CD organoids; dose 0.40 uM): 0.201; Z.CTG (standard z score) (ENR+CD organoids; dose 0.40 uM): 0.481; Dose.FC.CTG (log2 fold change) (ENR+CD organoids; dose 2.00 uM): 0.229; Z.CTG (standard z score) (ENR+CD organoids; dose 2.00 uM): 0.546; Dose.FC.CTG (log2 fold change) (ENR+CD organoids; dose 10.00 uM): −0.078; Z.CTG (standard z score) (ENR+CD organoids; dose 10.00 uM): −0.186; Dose.FC.LYZ.S (log2 fold change) ([1]; dose 0.08 uM): 0.091; Dose.FC.LYZ.S (log2 fold change) ([1]; dose 0.40 uM): 0.074; Dose.FC.LYZ.S (log2 fold change) ([1]; dose 2.00 uM): 0.179; Dose.FC.LYZ.S (log2 fold change) ([1]; dose 10.00 uM): −0.047; Dose.FC.LYZ.NS (log2 fold change) ([2]; dose 0.08 uM): 0.059; Z.LYZ.NS (standard z score) ([2]; dose 0.08 uM): 0.516; Dose.FC.LYZ.NS (log2 fold change) ([2]; dose 0.40 uM): 0.002; Z.LYZ.NS (standard z score) ([2]; dose 0.40 uM): 0.013; Dose.FC.LYZ.NS (log2 fold change) ([2]; dose 2.00 uM): 0.077; Z.LYZ.NS (standard z score) ([2]; dose 2.00 uM): 0.673; Dose.FC.LYZ.NS (log2 fold change) ([2]; dose 10.00 uM): −0.009; Z.LYZ.NS (standard z score) ([2]; dose 10.00 uM): −0.080
COc1cc(Br)c(Nc2nc(-c3c(C)nc4ncccn34)cs2)c(Br)c1 [PTC-209]	−0.108	−0.207	−1.422	−1.553	0.007	0.045	−0.289	−0.300	0.034	0.294	−0.058	−0.509	−0.201	−1.753	−0.227	−1.975	Z.CTG (ENR+CD organoids; dose 0.08 uM): −0.259; Z.CTG (ENR+CD organoids; dose 0.40 uM): −0.495; Z.CTG (ENR+CD organoids; dose 2.00 uM): −3.397; Z.CTG (ENR+CD organoids; dose 10.00 uM): −3.708
CN[C@H]1CC[C@@H](c2ccc(Cl)c(Cl)c2)c2ccccc21 [Sertraline HCl]	−0.079	0.087	0.066	0.043	−0.048	−0.076	0.023	−0.021	−0.026	−0.227	−0.082	−0.714	0.052	0.450	−0.005	−0.044	–
